Square brackets hold non-standard residues; d marks the D form. Peptide text beside a SMILES is read from it. * marks the point of attachment. His(Trt) = N[C@@H](Cc1cn(C(c2ccccc2)(c2ccccc2)c2ccccc2)cn1)C(=O)O; dHis(Trt) = N[C@H](Cc1cn(C(c2ccccc2)(c2ccccc2)c2ccccc2)cn1)C(=O)O; His(τ-CHPh2) = N[C@@H](Cc1cn(C(c2ccccc2)c2ccccc2)cn1)C(=O)O; Biotin = O=C1N[C@H]2[C@H](CS[C@H]2CCCCC(=O)*)N1; dPhe(4-CF3) = N[C@H](Cc1ccc(C(F)(F)F)cc1)C(=O)O; dPhe(4-Cl) = N[C@H](Cc1ccc(Cl)cc1)C(=O)O; dPhe(4-Me) = Cc1ccc(C[C@@H](N)C(=O)O)cc1; Phe(4-Me) = Cc1ccc(C[C@H](N)C(=O)O)cc1; Decanoyl = CCCCCCCCCC(=O)*; Octanoyl = CCCCCCCC(=O)*; Boc = CC(C)(C)OC(=O)*
Assays:
GPR39 [1] = biological target: T1, GPR39 (Homo sapiens, UniProt O43194); assay: luciferase assay system (SRE luciferase reporter gene) for GPR39 in CV-1 cells; conditions: for EC50: EC50, CV-1 cells, GPR39 and SRE luciferase adenovirus, treated 6 hours, luminometer
T1 sequence (O43194 1-453): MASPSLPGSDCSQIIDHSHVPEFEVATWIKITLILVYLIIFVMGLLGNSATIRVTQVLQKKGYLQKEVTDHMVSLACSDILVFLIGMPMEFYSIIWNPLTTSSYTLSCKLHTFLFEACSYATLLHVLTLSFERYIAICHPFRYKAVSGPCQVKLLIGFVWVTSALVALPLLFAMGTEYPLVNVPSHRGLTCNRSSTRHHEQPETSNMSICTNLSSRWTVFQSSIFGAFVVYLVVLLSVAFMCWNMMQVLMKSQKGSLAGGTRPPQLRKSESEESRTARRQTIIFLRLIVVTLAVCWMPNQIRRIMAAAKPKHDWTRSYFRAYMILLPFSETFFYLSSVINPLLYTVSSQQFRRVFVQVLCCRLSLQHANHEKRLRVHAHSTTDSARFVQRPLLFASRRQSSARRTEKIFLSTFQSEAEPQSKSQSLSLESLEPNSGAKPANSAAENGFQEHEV
Description: (§1) Specifically, the fibroblast cell line CV-1 (1×10^5 cells/ml, Korea Cell Line Bank) was cultured in a 96 well cell culture plate for 24 hours, and then treated with GPR39 inserted into adenovirus and SRE (serum response element) luciferase at 50 MOI (multiplicity of infection) and 25 MOI virus for 3 hours, respectively, and then cultured for 24 hours.

GPR39 [2] = biological target: T1, GPR39
Description: as §1

Compound | EC50 (GPR39 [1]) | ECmax value (in words) (GPR39 [1]; comment on Table 3) | activity level for GPR39 (in words) (GPR39 [1]; comment on Table 3, listed as HIKFY-30) | activity level for GPR39 (in words) (GPR39 [1]; comment on Table 3, listed as HJKFY-30) | ECmax (-fold induction over basal) (GPR39 [2])
CCCCCCCC(=O)NCCCC[C@H](NC(=O)[C@@H](N)Cc1cn(C(c2ccccc2)(c2ccccc2)c2ccccc2)cn1)C(=O)N[C@H](Cc1ccc(C)cc1)C(=O)N[C@@H](Cc1ccc(O)cc1)C(=O)O [HKFY-30, ((R)-2-((S)-2-((S)-2-amino-3-(1-trityl-1H-imidazol-4-yl)propanamido)-6-octanamidohexanamido)-3-(p-tolyl)propanoyl)-L-tyrosine] (H-[His(Trt)]K(Octanoyl)[dPhe(4-Me)]Y-OH) | 0.008 ± 0.001 µM | high ECmax value | most excellent activity | higher activity level than other HJKFY derivatives | 23.88 ± 3.04 -fold induction over basal
CCCCCCCC(=O)NCCCC[C@H](NC(=O)[C@H](N)Cc1cn(C(c2ccccc2)(c2ccccc2)c2ccccc2)cn1)C(=O)N[C@H](Cc1ccc(Cl)cc1)C(=O)N[C@H](Cc1ccc(O)cc1)C(=O)O [HKFY-14, ((R)-2-((S)-2-((R)-2-amino-3-(1-trityl-1H-imidazol-4-yl)propanamido)-6-octanamidohexanamido)-3-(4-chlorophenyl)propanoyl)-D-tyrosine] (H-[dHis(Trt)]K(Octanoyl)[dPhe(4-Cl)][dY]-OH) | 0.02 ± 0.003 µM | – | – | – | 20.9 ± 1.4 -fold induction over basal
CCCCCCCC(=O)NCCCC[C@H](NC(=O)[C@H](Cc1c[nH]c2ccccc12)NC(=O)OC(C)(C)C)C(=O)N[C@H](Cc1ccc(C)cc1)C(=O)N[C@@H](Cc1ccc(O)cc1)C(=O)O [HKFY-78, ((R)-2-((S)-2-((S)-2-((tert-butoxycarbonyl)amino)-3-(1H-indol-3-yl)propanamido)-6-octanamidohexanamido)-3-(p-tolyl)propanoyl)-L-tyrosine] (Boc-WK(Octanoyl)[dPhe(4-Me)]Y-OH) | 0.009 ± 0.001 µM | – | – | – | 11.4 ± 1.54 -fold induction over basal
CCCCCCCCCC(=O)NCCCC[C@H](NC(=O)[C@@H](N)Cc1cn(C(c2ccccc2)(c2ccccc2)c2ccccc2)cn1)C(=O)N[C@@H](Cc1ccccc1)C(=O)N[C@@H](Cc1ccc(O)cc1)C(=O)O [HKFY-24, N6-decanoyl-N2-(Nt-trityl-L-histidyl)-L-lysyl-L-phenylalanyl-L-tyrosine] (H-[His(Trt)]K(Decanoyl)FY-OH) | 0.24 ± 0.07 µM | – | – | – | 7.03 ± 0.57 -fold induction over basal
CCCCCCCC(=O)NCCCC[C@H](NC(=O)[C@H](Cc1cn(C(c2ccccc2)(c2ccccc2)c2ccccc2)cn1)NC(=O)CCCC[C@@H]1SC[C@@H]2NC(=O)N[C@@H]21)C(=O)N[C@@H](Cc1ccccc1)C(=O)N[C@@H](Cc1ccc(O)cc1)C(=O)O [HKFY-2, N6-octanoyl-N2-(Na-(5-((3aS,4S,6aR)-2-oxohexahydro-1H-thieno[3,4-d]imidazol-4-yl)pentanoyl)-Nt-trityl-L-histidyl)-L-lysyl-L-phenylalanyl-L-tyrosine] (Biotin-[His(Trt)]K(Octanoyl)FY-OH) | 0.14 ± 0.07 µM | – | – | – | 15 ± 1.87 -fold induction over basal
CCCCCCCC(=O)NCCCC[C@H](NC(=O)[C@H](Cc1cn(C(c2ccccc2)(c2ccccc2)c2ccccc2)cn1)NC(=O)[C@H](CO)NC(=O)CN)C(=O)N[C@@H](Cc1ccccc1)C(=O)N[C@@H](Cc1ccc(O)cc1)C(=O)O [HKFY-37, N2-(Na-glycyl-L-seryl-Nt-trityl-L-histidyl)-N6-octanoyl-L-lysyl-L-phenylalanyl-L-tyrosine] (H-GS[His(Trt)]K(Octanoyl)FY-OH) | 1.84 ± 0.2 µM | – | – | – | 16 ± 1.7 -fold induction over basal
CCCCCCCC(=O)NCCCC[C@H](NC(=O)[C@@H](N)Cc1cn(Cc2ccc(-c3ccccc3-c3nnn[nH]3)cc2)cn1)C(=O)N[C@H](Cc1ccc(C)cc1)C(=O)N[C@@H](Cc1ccc(O)cc1)C(=O)O [HKFY-77, ((R)-2-((S)-2-((S)-3-(1-((2′-(1H-tetrazol-5-yl)-[1,1′-biphenyl]-4-yl)methyl)-1H-imidazol-4-yl)-2-aminopropanamido)-6-octanamidohexanamido)-3-(p-tolyl)propanoyl)-L-tyrosine] | 0.007 ± 0.002 µM | – | – | – | 11.6 ± 2.14 -fold induction over basal
CCCCCCCC(=O)NCCCC[C@H](NC(=O)[C@@H](N)Cc1cn(C(c2ccccc2)(c2ccccc2)c2ccccc2)cn1)C(=O)N[C@H](Cc1ccc(C(F)(F)F)cc1)C(=O)N[C@@H](Cc1ccc(O)cc1)C(=O)O [HKFY-76, ((R)-2-((S)-2-((S)-2-amino-3-(1-trityl-1H-imidazol-4-yl)propanamido)-6-octanamidohexanamido)-3-(4-(trifluoromethyl)phenyl)propanoyl)-L-tyrosine] (H-[His(Trt)]K(Octanoyl)[dPhe(4-CF3)]Y-OH) | 0.007 ± 0.001 µM | – | – | – | 14.2 ± 3.75 -fold induction over basal
CCCCCCCC(=O)NCCCC[C@@H](NC(=O)[C@@H](N)Cc1cn(C(c2ccccc2)(c2ccccc2)c2ccccc2)cn1)C(=O)N[C@H](Cc1ccc(Cl)cc1)C(=O)N[C@@H](Cc1ccc(O)cc1)C(=O)O [HKFY-16, ((R)-2-((R)-2-((S)-2-amino-3-(1-trityl-1H-imidazol-4-yl)propanamido)-6-octanamidohexanamido)-3-(4-chlorophenyl)propanoyl)-L-tyrosine] (H-[His(Trt)][dK](Octanoyl)[dPhe(4-Cl)]Y-OH) | 0.24 ± 0.02 µM | – | – | – | 27.9 ± 3.4 -fold induction over basal
CCCCCCCC(=O)NCCCC[C@H](NC(=O)[C@@H](N)Cc1c[nH]c(-c2ccccc2)n1)C(=O)N[C@H](Cc1ccc(C)cc1)C(=O)N[C@@H](Cc1ccc(O)cc1)C(=O)O [HKFY-57, ((R)-2-((S)-2-((S)-2-amino-3-(2-phenyl-1H-imidazol-4-yl)propanamido)-6-octanamidohexanamido)-3-(p-tolyl)propanoyl)-L-tyrosine] | 0.26 ± 0.01 µM | – | – | – | 8.5 ± 2.3 -fold induction over basal
CCCCCCCC(=O)NCCCC[C@H](NC(=O)[C@H](Cc1cn(C(c2ccccc2)c2ccccc2)cn1)NC(=O)CCCC[C@@H]1SC[C@@H]2NC(=O)N[C@@H]21)C(=O)N[C@@H](Cc1ccc(C)cc1)C(=O)N[C@@H](Cc1ccc(O)cc1)C(=O)O [HKFY-72, ((S)-2-((S)-2-((S)-3-(1-benzhydryl-1H-imidazol-4-yl)-2-(5-((3aS,4S,6aR)-2-oxohexahydro-1H-thieno[3,4-d]imidazol-4-yl)pentanamido)propanamido)-6-octanamidohexanamido)-3-(p-tolyl)propanoyl)-L-tyrosine] (Biotin-[His(τ-CHPh2)]K(Octanoyl)[Phe(4-Me)]Y-OH) | 0.011 ± 0.002 µM | – | – | – | 10.4 ± 1.12 -fold induction over basal
CCCCCCCC(=O)NCCCC[C@H](NC(=O)[C@@H](N)Cc1cn(C(c2ccccc2)c2ccccc2)cn1)C(=O)N[C@@H](Cc1ccccc1)C(=O)N[C@@H](Cc1ccc(O)cc1)C(=O)O [HKFY-33, N2-(Nt-benzhydryl-L-histidyl)-N6-octanoyl-L-lysyl-L-phenylalanyl-L-tyrosine] (H-[His(τ-CHPh2)]K(Octanoyl)FY-OH) | 0.15 ± 0.07 µM | – | – | – | 20 ± 0.57 -fold induction over basal

From patent US20230212222A1 (ANYGEN CO., LTD., priority 2020, published 2023)
